Experimental data as given in patent US20070026465A1, “Method for detecting GAD65 autoreactive T cells newly diagnosed type1 diabetic patients and in the prediabetic period” (priority 2005, published 2007).
“And” between values parts separate entries of the source, which are not always exact repeats. Equal values may be shown once.

Experiments:
Assay type in all cases: cell-based, human
[1] = tested on: PBMC of newly diagnosed T1D patients; assay: GAD65 HLA class I tetramer staining and flow cytometry of stimulated PBMC, T1D patients; design: % CD3+/CD8+/GAD65 reactive T cells, average / % CD3+/CD8+/GAD65 reactive T cells: concentration or dose not given beside the values
[2] = tested on: CD8+/GAD65 reactive lymphocytes of a T1D patient; assay: Early-late apoptosis (Annexin V / propidium iodide) in peptide stimulated PBMC
Experimental: At day 4 and day 6 from the beginning of the culture, 1×10^6 cells stimulated with the GAD65 peptide according to the above mentioned protocols were washed in the same washing phosphate buffer as described above and resuspended in the residual volume of approximately 50 μl. 1 μl PE-labelled GAD65 tetramer was used per staining procedure. Cells were then incubated with biotinylated anti-human CD8 MoAb (1:10 dilution, Becton Dickinson) in ice, for at least 30 min, in the dark. They were then washed with washing buffer by centrifugation at 1500 rpm for 5 min at room temperature. 5 μl of streptavidin-(Cy5) conjugate was then added for 30 min at room temperature, in the dark. Cells were then washed in ice cold PBS (2% FBS) by centrifugation at 1500 rpm for 5 min at room temperature. Cell pellet was then suspended in 500 μl of phosphate buffer. 10 μl of cold media binding reagent (Calbiochem, San Diego, Calif., USA) and 1.25 μl of Annexin V-FITC conjugate (Calbiochem) were added according to manufacturer's instructions. […] Staining was then immediately achieved and analysed by flow cytometry. […] Cells were evaluated as necrotic when stained with propidium iodide but negative for Annexin V, cells were evaluated as late apoptotic when propidium iodide positive and binding Annexin V, early apoptotic when propidium iodide negative and Annexin V positive and viable when negative for both stainings.

[3] = tested on: PBMC of healthy control individuals; assay: GAD65 HLA class I tetramer staining and flow cytometry of stimulated PBMC, healthy controls; design: % CD3+/CD8+/GAD65 reactive T cells, average / % CD3+/CD8+/GAD65 reactive T cells: concentration or dose not given beside the values
[4] = tested on: PBMC of newly-diagnosed T1D patients; assay: T cell activation (CD69 staining) in stimulated PBMC, T1D patients; settings: GAD65 peptide treated PBMC, day 6;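 note: GAD65 peptide 10 to 30 µg/ml in culture medium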
Experimental: (§1) PBMC were separated from 5-10 ml heparinized peripheral blood by Ficoll gradient centrifugation (Histopaque, Sigma-Aldrich, St. Luis, Mo., USA). […] This washing step was introduced in the method to remove the GAD65 peptide and therefore reduce the risk of aspecificities in the subsequent procedure of tetramer binding. […] Cells were then harvested and processed for tetramer staining and flow cytometric analysis.
(§2) On day 4 or day 6 from the beginning of culture, 1×10^6 cells were allocated for staining. They were washed by centrifugation at 1500 rpm for 5 min at room temperature in wash buffer [0.1% sodium azide, 2% FBS in PBS] then resuspended in the residual volume (approximately 50 μl). 1 μl of phycoerythrin (PE) labelled GAD65 tetramer was added and incubated in ice for 30^+ min in the dark. […] Cells were then washed twice in phosphate buffer and their staining achieved using a Beckton Dickinson FACSCalibur flow cytometer and analysed with the CellQuest software program. T cell activation was evaluated by staining cells with […] in different multiple staining experiments. […]

[5] = tested on: PBMC of healthy normal controls; assay: T cell activation (CD69 staining) in stimulated PBMC, healthy controls; settings: GAD65 peptide treated PBMC, day 6;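 note: GAD65 peptide 10 to 30 µg/ml in culture medium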
Experimental: as §1, §2

VMNILLQYV [GAD65 peptide]
% CD3+/CD8+/GAD65 reactive T cells, average ([1]; GAD65 treated PBMC, average of 22 T1D patients, day 6): 30.0% | % CD3+/CD8+/GAD65 reactive T cells ([1]; GAD65 treated PBMC, individual T1D patients, day 6 of culture): 73% and 17% and 12.5% and 14.08% and 1% (2×) and 19% and 98% and 85% and 68% and 22% and 70% and 82% and 21% and 1.35% and 2.64% and 0.81% and 3.19% and 58% and 2.59% and 2.28% and 6.39% | Dot Plot pattern of CD8 expression of CD8+ GAD65 reactive T cells ([1]; T1D patients after GAD65 peptide stimulation, not seen in normal controls): peculiar pattern of low CD8 expression | percentage of CD3+/CD8+/GAD65 reactive T cells compared to IL-2 stimulation ([1]; one T1D patient non-responding at day 6, 2 days peptide then 2 days IL-2, analysis at day 4 (FIG. 8)): significant increase | apoptosis (Annexin V) of CD8+/GAD65 reactive lymphocytes ([2]; T1D patient, day 4 of culture with the GAD65 peptide (FIG. 9 E-F)): shows signs of apoptosis | population of Annexin V positive cells ([2]; same samples, day 6 of GAD65 peptide treatment (FIG. 10)): no longer detectable | increase of the population of CD3+/CD8+/GAD65 reactive T cells (specificity of the response) [3]: no significant increase | % CD3+/CD8+/GAD65 reactive T cells, average ([3]; GAD65-treated PBMC, average of 22 normal controls, day 6): 0.9% | % CD3+/CD8+/GAD65 reactive T cells ([3]; GAD65-treated PBMC, individual normal controls, day 6 of culture): 0.37% and 0.42% and 2% and 0.09% and 0.97% and 0.6% and 8% and 1.21% and 0.25% and 0.9% and 1.03% and 0.49% and 0.23% (2×) and 0.03% and 0.21% and 0.11% and 0.13% and 0.14% and 0.17% and 0.86% and 0.57% | percentage of CD8+/GAD65 reactive lymphocytes ([3]; healthy control donor, day 4, after GAD65 peptide stimulation (FIG. 9 B-C)): very low | % CD69/CD3/CD8 positive T cells, average ([4]; average of T1D patients): 18.9% | % CD69/CD3/CD8 positive T cells ([4]; individual T1D patients): 13.5% and 10.94% and 24% and 39% and 28% (2×) and 42% and 18% and 4.63% and 1.5% and 3.2% and 20% and 9.87% and 22% | % CD69+/CD3+/CD8+ T cells, average ([5]; average of normal controls): 12.9% | % CD69+/CD3+/CD8+ T cells ([5]; individual normal controls): 2.1% and 0.75% and 13.51% and 17% and 26% and 13.4% and 18% (2×) and 19% and 1.7%
